According to US20180153995A1, “USE OF ANTIMICROBIAL POLYMERS FOR RE-SENSITIZATION OF MICROORGANISMS UPON EMERGENCE OF RESISTANCE TO ANTI-MICROBIAL AGENTS” (Technion Research & Development Foundation Limited, priority 2008, published 2018):
Values after ≈ are worked out from the molar mass of the structure shown. Where two headings read alike, the source gives them in different places. Numbered stars: 1 amine (or outer) side, 2 acyl side, 3 side chain; on linkers, the order of the positions; unused ones are H or OH. Square brackets hold non-standard residues; d marks the D form. Peptide text beside a SMILES is read from it. * marks the point of attachment. NH(CH2)9CO = O=C(CCCCCCCCCN[*:1])[*:2]; Lauroyl = CCCCCCCCCCCC(=O)*

Experiments:
[1] = tested on: various strains of S. aureus, E. coli P. aeruginosa, P. mirabilis and S. maltophila; format: cell-based; details: strain not stated
Method: Antibacterial activity was determined using various strains of S. aureus, E. coli P. aeruginosa, P. mirabilis and S. maltophila, cultured in LB medium (10 grams/liter trypton, 5 grams/liter yeast extract, 5 grams/liter NaCl, pH 7.4). Bacterial strains include susceptible strains of Staphylococcus aureus, Pseudomonas aeruginosa, Bacillus cereus and Escherichia coli (ATCC, American Type Culture Collection), as well as antibiotic-resistant strains such as oxacillin-resistant Staphylococcus aureus (ORSA) and methicillin-resistant Staphylococcus aureus (MRSA).
(§1) MICs were determined by microdilution susceptibility testing in 96-well plates (by Nunc) using inocula of 10^5 bacteria per ml. Cell populations were evaluated by optical density measurements at 620 nm and were calibrated against a set of standards. Hundred (100) μl of a bacterial suspension were added to 100 μl of culture medium (control) or to 100 μl of culture medium containing various polymer concentrations in 2-fold serial dilutions. Inhibition of proliferation was determined by optical density measurements at 620 nm after an incubation period of 24 hours at 37° C.

MRSA 15903 = test: microbe, parasite or virus in culture; format: cell-based, Staphylococcus aureus; details: for MIC, ¼ + MIC OAK: with C12K(KNC10K)3NH2 (SEQ ID NO: 10) at ¼ of its MIC; for MIC, ½ + MIC OAK: with C12K(KNC10K)3NH2 (SEQ ID NO: 10) at ½ of its MIC; for MIC, ⅓ + MIC OAK: with C12K(KNC10K)3NH2 (SEQ ID NO: 10) at ⅓ of its MIC
Method: (§2) The fractionary inhibitory (FIC) concentration index for combinations of two antimicrobial agents was calculated as follows: FIC index=FICA+FICB=A/MICA+B/MICB where A and B are the MIC values of agent A and agent B in the combination, MICA and MICB are the MICs of agent A and agent B alone, and FICA and FICB are the FICs of agent A and agent B.
(§3) The FIC indexes were interpreted as follows: less than 0.5 indicates a clear re-sensitizing effect; from 0.5 to 4 indicates a marginal or null re-sensitizing effect; and over 4 indicates antagonism.
Experimental data for FIG. 4 were obtained as follows.

E. coli 16327 = test: microbe, parasite or virus in culture; details: 16327
Method: as §1
100 μl of a bacterial suspension were added to 100 μl of culture medium (control) or to 100 μl of culture medium containing various antibiotic and C14(9-ene)KKNC12KNH2 (SEQ ID NO: 5) concentrations in 2-fold serial dilutions. Inhibition of proliferation was determined by optical density measurements at 620 nm after an incubation period of 24 hours at 37° C.

ATCC 29213 = test: microbe, parasite or virus in culture; format: cell-based, Staphylococcus aureus; details: ATCC 29213
Method: as §1, §2, §3

MRSA 15918 = test: microbe, parasite or virus in culture; format: cell-based, Staphylococcus aureus; details: 15918
Method: as §1, §2, §3

ATCC 25923 = test: microbe, parasite or virus in culture; format: cell-based, Staphylococcus aureus; details: ATCC 25923
Method: as §1

S. aureus ATCC 29213 = test: microbe, parasite or virus in culture
Method: In parallel, MIC evolution was compared concomitantly for each new sub-culture, using bacteria harvested from control wells (wells cultured without antimicrobial agent from the previous sub-culture). The relative MIC was calculated for each experiment from the ratio of MIC obtained for subculture “n” to that obtained for first-time exposure.
The relative MIC was determined as the normalized ratio of the MIC obtained for a given subculture to the MIC of the control.
MICs were determined by microdilution susceptibility testing in 96-well plates using inocula of 10^5 bacteria per ml. Cell populations were evaluated by optical density measurements at 600 nm and were calibrated against a set of standards.
In parallel, MIC evolution was compared concomitantly for each new generation, using bacteria harvested from control wells (wells cultured without antimicrobial agent from the previous generation). The relative MIC was calculated for each experiment from the ratio of MIC obtained for subculture “n” to that obtained for first-time exposure. […] MICs were determined by microdilution susceptibility testing in 96-well plates. Cell populations were evaluated by optical density measurements at 600 nm and were calibrated against a set of standards.

MRSA 15852 = format: cell-based, Staphylococcus aureus; details: 15852
Method: as §2, §3

[2] = Staphylococcus aureus, MRSA, 24 h, MRSA 15903, antibiotic alone (Table 22), read-out: MIC, Alone

CCCCCCC=CCCCCCCCC(=O)N[C@@H](CCCCN)C(=O)N[C@@H](CCCCN)C(=O)NCCCCCCCCCCCC(=O)N[C@@H](CCCCN)C(N)=O [C16(9-ene)KKNC12KNH2] was tested, and the “MIC of polymer per se” value [1] was 6.2 µM.

For CCN1CCN(C(=O)N[C@@H](C(=O)N[C@@H]2C(=O)N3C(C(=O)O)=C(CSc4nnnn4C)CS[C@H]23)c2ccc(O)cc2)C(=O)C1=O [cefoperazone], the “MIC, ¼ + MIC OAK” value (MRSA 15903; MRSA 15903) was 16 µg/mL, the “MIC, ½ + MIC OAK” value (MRSA 15903; MRSA 15903) was 4 µg/mL and the “MIC, ⅓ + MIC OAK” value (MRSA 15903; MRSA 15903) was 8 to 16 µg/mL. It also gave an MIC (MRSA 15903; [2]) of 16 µg/mL.

CCCCCCCCCCCC(=O)N[C@@H](CCCCN)C(=O)N[C@@H](CCCCN)C(=O)NCCCCCCCCCC(=O)N[C@@H](CCCCN)C(=O)N[C@@H](CCCCN)C(=O)NCCCCCCCCCC(=O)N[C@@H](CCCCN)C(=O)N[C@@H](CCCCN)C(=O)NCCCCCCCCCC(=O)N[C@@H](CCCCN)C(N)=O [C12K(KNC10K)3NH2] (Lauroyl-KK[NH(CH2)9CO]KK[NH(CH2)9CO]KK[NH(CH2)9CO]K-NH2) gave an MIC of polymer (E. coli 16327) of 3.1 µM and an MIC of polymer (MRSA 15903; 15903) of 6.25 µM.

For CCCCCCC=CCCCC(=O)N[C@@H](CCCCN)C(=O)N[C@@H](CCCCN)C(=O)NCCCCCCCCCCCC(=O)N[C@@H](CCCCN)C(N)=O [C12(5-ene)KKNC12KNH2], the MIC (ATCC 29213) was 6.2 µM, the MIC (MRSA 15918) was 6.2 µM and the MIC (ATCC 25923) was 3.1 µM (≈ 2.42 µg/mL). The MIC (MRSA 15903; 15903) was 3.1 to 6.2 µM, the MIC of polymer (MRSA 15903; 15903) was 6.2 µM and the “fractionary inhibitory concentration (FIC) index” value (MRSA 15903; MRSA 15903, oxacillin + polymer at optimal concentration 2.1 μM) was 0.35. For the same compound, the “optimal re-sensitization polymer concentration” value (MRSA 15903; MRSA 15903, with oxacillin) was 2.1 µM, the “mean polymer's MIC” value (S. aureus ATCC 29213; ATCC 29213) was 4.9 µg/mL and the “effect on relative MIC of now-resistant strain” value (S. aureus ATCC 29213; now-resistant ATCC 29213, polymer alone or oxacillin + sub-MIC polymer) was “decreased the relative MIC”. It also gave an MIC (MRSA 15852) of 6.2 µM.

In the case of CO/N=C(\C(=O)N[C@@H]1C(=O)N2C(C(=O)O)=C(COC(C)=O)CS[C@H]12)c1csc(N)n1 [cefotaxime], the “MIC, ¼ + MIC OAK” value (MRSA 15903; MRSA 15903) is reported as 32 µg/mL, the “MIC, ½ + MIC OAK” value (MRSA 15903; MRSA 15903) is reported as 4 µg/mL and the “MIC, ⅓ + MIC OAK” value (MRSA 15903; MRSA 15903) is reported as 16 µg/mL. It also gave an MIC (MRSA 15903; [2]) of 32 µg/mL.
